Target: Factor D (Homo sapiens (Human), UniProt P00746)
Assay: biochemical
Type: biochemical
Details: read-out: IC50

Sequence of Factor D (P00746 26-253): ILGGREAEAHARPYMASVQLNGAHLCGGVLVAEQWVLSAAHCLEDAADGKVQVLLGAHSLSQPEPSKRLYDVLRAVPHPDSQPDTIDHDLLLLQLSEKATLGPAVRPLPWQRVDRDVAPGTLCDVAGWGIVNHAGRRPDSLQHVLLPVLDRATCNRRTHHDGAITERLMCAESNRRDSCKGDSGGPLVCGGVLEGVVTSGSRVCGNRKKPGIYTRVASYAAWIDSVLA

In the case of `NC(=O)n1cc(NC(=O)N2C[C@H](F)C[C@H]2C(=O)NCc2cccc(O)c2)c2ccccc21` [Example 9, (2S,4R)-4-Fluoro-pyrrolidine-1,2-dicarboxylic acid 1-[(1-carbamoyl-1H-indol-3-yl)-amide] 2-(3-hydroxy-benzylamide)], the IC50 is reported as 250 nM.

Work on `NC[C@@]1(F)C[C@@H](C(=O)N[C@H](CF)c2cccc(Br)c2)N(C(=O)Nc2cn(C(N)=O)c3ccccc23)C1` [Example 413, (2S,4S)-4-Aminomethyl-4-fluoro-pyrrolidine-1,2-dicarboxylic acid 2-{[(S)-1-(3-bromo-phenyl)-2-fluoro-ethyl]-amide}1-[(1-carbamoyl-1H-indol-3-yl)-amide]] yielded an IC50 of 101 nM.

Work on `COC(=O)COc1ccc2c(NC(=O)N3[C@@H]4C[C@@H]4C[C@H]3C(=O)Nc3cccc(OC(F)(F)F)c3)cn(C(N)=O)c2c1` [Example 276, (1-Carbamoyl-3-{[(1R,3S,5R)-3-(3-trifluoromethoxy-phenylcarbamoyl)-2-aza-bicyclo[3.1.0]hexane-2-carbonyl]-amino}-1H-indol-6-yloxy)-acetic acid methyl ester] yielded an IC50 of 1310 nM.

In the case of `COC(=O)COc1ccc2c(c1)c(NC(=O)N1C[C@](C)(F)C[C@H]1C(=O)NCc1cccc(Cl)c1F)cn2C(N)=O` [Example 318, (1-carbamoyl-3-{[(2S,4R)-2-(3-chloro-2-fluoro-benzylcarbamoyl)-4-fluoro-4-methyl-pyrrolidine-1-carbonyl]amino}-1H-indol-5-yloxy)-acetic acid methyl ester], the IC50 is reported as 3 nM.

`CC(C)(C)n1nnnc1-c1cc(Cl)c(F)c(CNC(=O)[C@@H]2C[C@@H](F)CN2C(=O)Nc2cn(C(N)=O)c3ccccc23)c1` [Example 347, (2S,4R)-4-Fluoro-pyrrolidine-1,2-dicarboxylic acid 2-[5-(1-tert-butyl-1H-tetrazol-5-yl)-3-chloro-2-fluoro-benzylamide]1-[(1-carbamoyl-1H-indol-3-yl)-amide]] gave an IC50 of 677 nM.

`CCOC(=O)Cc1ccc2c(NC(=O)N3[C@@H]4C[C@@H]4C[C@H]3C(=O)NCc3cccc(Cl)c3F)cn(C(N)=O)c2c1` [Example 315, (1-carbamoyl-3-{[(1R,3S,5R)-3-(3-chloro-2-fluoro-benzylcarbamoyl)-2-aza-bicyclo[3.1.0]hexane-2-carbonyl]-amino}-1H-indol-6-yl)-acetic acid ethyl ester] showed an IC50 of 13 nM.

`NC(=O)n1cc(NC(=O)N2CC[C@@H](O)[C@H]2C(=O)NCc2cnc(Cl)s2)c2ccccc21` [Example 283, (2S,3R)-3-Hydroxy-pyrrolidine-1,2-dicarboxylic acid 1-[(1-carbamoyl-1H-indol-3-yl)-amide] 2-[(2-chloro-thiazol-5-ylmethyl)-amide]] gave an IC50 of 900 nM.

`COC(=O)COc1ccc2c(C(N)=O)cn(CC(=O)N3C[C@H](F)C[C@H]3C(=O)NCc3cccc(Cl)c3F)c2c1` [Example 592, (3-Carbamoyl-1-{2-[(2S,4R)-2-(3-chloro-2-fluoro-benzylcarbamoyl)-4-fluoro-pyrrolidin-1-yl]-2-oxo-ethyl}-1H-indol-6-yloxy)-acetic acid methyl ester] gave an IC50 of 115 nM.

`CC(=O)c1cn(CC(=O)N2C[C@H](F)C[C@H]2C(=O)NCc2cccc(Cl)c2F)c2cc(CO)ccc12` [Example 604, (2S,4R)-1-[2-(3-Acetyl-6-hydroxymethyl-indol-1-yl)-acetyl]-4-fluoro-pyrrolidine-2-carboxylic acid 3-chloro-2-fluoro-benzylamide] was tested, and the IC50 was 37 nM.

In the case of `C[C@@H](NC(=O)[C@@H]1C[C@H]2C[C@H]2N1C(=O)Cn1nc(C(N)=O)c2cc[n+]([O-])cc21)c1cccc(Cl)c1F` [Example 706, 3-Carbamoyl-1-(2-((1R,3S,5R)-3-((R)-1-(3-chloro-2-fluorophenyl)ethyl-carbamoyl)-2-azabicyclo[3.1.0]hexan-2-yl)-2-oxoethyl)-1H-pyrazolo[3,4-c]pyridine 6-oxide], the IC50 is reported as 45 nM.

In the case of `NC(=O)c1nn(CC(=O)N2[C@@H]3C[C@@H]3C[C@H]2C(=O)Nc2cccc(OC(F)F)c2F)c2cnccc12` [Example 730, 1-{2-[(1R,3S,5R)-3-(3-Difluoromethoxy-2-fluoro-phenylcarbamoyl)-2-aza-bicyclo[3.1.0]hex-2-yl]-2-oxo-ethyl}-1H-pyrazolo[3,4-c] pyridine-3-carboxylic acid amide], the IC50 is reported as 143 nM.

`NC(=O)c1cn(CC(=O)N2C[C@H](F)C[C@H]2C(=O)NCc2cccc(Cl)c2F)c2ccc(Cl)cc12` [Example 488, 5-Chloro-1-{2-[(2S,4R)-2-(3-chloro-2-fluoro-benzylcarbamoyl)-4-fluoro-pyrrolidin-1-yl]-2-oxo-ethyl}-1H-indole-3-carboxylic acid amide] was tested, and the IC50 was 250 nM.

Work on `NC(=O)n1cc(NC(=O)N2C[C@H](F)C[C@H]2C(=O)NCc2cccc(Cl)c2F)c2ccccc21` [Example 1] yielded an IC50 of 7 nM.

Work on `NC(=O)n1cc(NC(=O)N2C[C@H](F)C[C@H]2C(=O)Nc2cc(Cl)cc(C(=O)O)c2)c2ccccc21` [Example 339, 3-Chloro-5-{[(2S,4R)-1-(1-carbamoyl-1H-indol-3-ylcarbamoyl)-4-fluoro-pyrrolidine-2-carbonyl]-amino}-benzoic acid] yielded an IC50 of 65 nM.

Work on `NC(=O)c1nn(CC(=O)N2[C@@H]3C[C@@H]3C[C@H]2C(=O)NCc2cccc(Cl)c2F)c2c[n+]([O-])ccc12` [Example 705, 3-Carbamoyl-1-(2-((1R,3S,5R)-3-(3-chloro-2-fluorobenzylcarbamoyl)-2-azabicyclo[3.1.0]hexan-2-yl)-2-oxoethyl)-1H-pyrazolo[3,4-c]pyridine 6-oxide] yielded an IC50 of 21 nM.

Molecule `NC(=O)n1cc(NC(=O)N2C[C@@H](CO)C[C@H]2C(=O)NCc2c(F)ccc(Cl)c2F)c2ccccc21` [Example 436, 2S,4S)-4-Hydroxymethyl-pyrrolidine-1,2-dicarboxylic acid 1-[(1-carbamoyl-1H-indol-3-yl)-amide]2-(3-chloro-2,6-difluoro-benzylamide] has an IC50 of 150 nM.

Work on `CO[C@H]1[C@@H](C(=O)NCc2cccc(Cl)c2F)N(C(=O)Cn2nc(C(N)=O)c3cnccc32)C[C@@H]1F` [Example 663, 1-{2-[(2S,3S,4S)-2-(3-Chloro-2-fluoro-benzylcarbamoyl)-4-fluoro-3-methoxy-pyrrolidin-1-yl]-2-oxo-ethyl}-1H-pyrazolo[4,3-c]pyridine-3-carboxylic acid amide] yielded an IC50 of 36 nM.

For `CC(=O)c1cn(CC(=O)N2C[C@H](F)C[C@H]2C(=O)NCc2cccc(Cl)c2F)c2ccccc12` [Example 507, (2S,4R)-1-[2-(3-Acetyl-indol-1-yl)-acetyl]-4-fluoro-pyrrolidine-2-carboxylic acid 3-chloro-2-fluoro-benzylamide], the IC50 was 16 nM.

`CC(=O)c1cn(CC(=O)N2[C@@H]3C[C@@H]3C[C@H]2C(=O)Nc2cccc(Br)n2)c2ncccc12` [Example 750, (1R,3S,5R)-2-[2-(3-Acetyl-pyrrolo[2,3-b]pyridin-1-yl)-acetyl]-2-aza-bicyclo[3.1.0] hexane-3-carboxylic acid (6-bromo-pyridin-2-yl)-amide] gave an IC50 of 34 nM.

With `NC(=O)n1cc(NC(=O)N2N=CCC2C(=O)NCc2cccc(Cl)c2)c2ccccc21` (stereo not shown) [Example 361, 4,5-Dihydro-pyrazole-1,5-dicarboxylic acid 1-[(1-carbamoyl-1H-indol-3-yl)-amide]5-(3-chloro-benzylamide)] the IC50 was 25 nM.

In the case of `CC(=O)c1cn(CC(=O)N2[C@@H]3C[C@@H]3C[C@H]2C(=O)NCc2cc(C(=O)O)cc(Cl)c2F)c2ccccc12` [Example 606, 3-[({(1R,3S,5R)-2-[2-(3-Acetyl-indol-1-yl)-acetyl]-2-aza-bicyclo[3.1.0]hexane-3-carbonyl}-amino)-methyl]-5-chloro-4-fluoro-benzoic acid], the IC50 is reported as 14 nM.

For `NC(=O)n1cc(NC(=O)N2C[C@@H](C(F)F)C[C@H]2C(=O)NCc2cccc(Cl)c2F)c2ccccc21` [Example 359, 2S,4S)-4-Difluoromethyl-pyrrolidine-1,2-dicarboxylic acid 1-[(1-carbamoyl-1H-indol-3-yl)-amide]2-(3-chloro-2-fluoro-benzylamide], the IC50 was 250 nM.

In the case of `NC(=O)n1cc(NC(=O)N2C[C@](O)(CO)C[C@H]2C(=O)NCc2cccc(Cl)c2F)c2ccccc21` [Example 202, (2S,4S)-4-Hydroxy-4-hydroxymethyl-pyrrolidine-1,2-dicarboxylic acid 1-[(1-carbamoyl-1H-indol-3-yl)-amide] 2-(3-chloro-2-fluoro-benzylamide)], the IC50 is reported as 450 nM.

`CC(=O)c1cn(CC(=O)N2C[C@](C)(F)C[C@H]2C(=O)NCc2cccc(Cl)c2F)c2ccc(O)cc12` [Example 580, (2S,4R)-1-[2-(3-Acetyl-5-hydroxy-indol-1-yl)-acetyl]-4-fluoro-4-methyl-pyrrolidine-2-carboxylic acid 3-chloro-2-fluoro-benzylamide] was tested, and the IC50 was 252 nM.

`NC(=O)n1cc(NC(=O)N2C[C@@H](N)C[C@H]2C(=O)NCc2ccc(O)cc2)c2ccccc21` [Example 47, (2S,4S)-4-Amino-pyrrolidine-1,2-dicarboxylic acid 1-[(1-carbamoyl-1H-indol-3-yl)-amide] 2-(4-hydroxy-benzylamide)] showed an IC50 of 8950 nM.

Molecule `NC(=O)n1cc(NC(=O)N2CC[C@@H](N)[C@H]2C(=O)N[C@@H](c2cccc(Cl)c2F)C(F)(F)F)c2ccccc21` [Example 419, (2S,3R)-3-Amino-pyrrolidine-1,2-dicarboxylic acid 1-[(1-carbamoyl-1H-indol-3-yl)-amide]2-{[(S)-1-(3-chloro-2-fluoro-phenyl)-2,2,2-trifluoro-ethyl]-amide}] has an IC50 of 476 nM.

With `COC[C@@]12C[C@@H](C(=O)NCc3cccc(Cl)c3F)N(C(=O)Nc3cn(C(N)=O)c4ccccc34)[C@@H]1C2` [Example 184, (1R,3S,5S)-5-Methoxymethyl-2-aza-bicyclo[3.1.0]hexane-2,3-dicarboxylic acid 2-[(1-carbamoyl-1H-indol-3-yl)-amide] 3-(3-chloro-2-fluoro-benzylamide)] the IC50 was 9 nM.

`NC(=O)n1cc(NC(=O)N2C3CC3C[C@H]2C(=O)NCc2ccc(Cl)s2)c2ccccc21` (stereo partly drawn) [Example 155, (1R,3S,5R)-2-Aza-bicyclo[3.1.0]hexane-2,3-dicarboxylic acid 2-[(1-carbamoyl-1H-indol-3-yl)-amide] 3-[(5-chloro-thiophen-2-ylmethyl)-amide]] gave an IC50 of 20 nM.

— patent US9085555B2, “Complement pathway modulators and uses thereof” (priority 2011, dated 2015)
